We go through 9 molecules from publication PMC6424957 (Scientific Reports, 2019).

Structures are written as SMILES. Where “and” joins values, the source holds several entries; their conditions need not be identical. Equal values may be shown once. Read-outs that look alike come from different tables or passages of the source.

By IC50 is commonly meant the concentration that inhibits the measured activity by half. Usually inhibition stands for the drop in the measured response relative to a control, in per cent. Low readings indicate a response near the control, high ones a response far below the control.

Assay [1] concerns the target T1, human erythrocyte acetylcholinesterase (AChE) (Homo sapiens, UniProt P22303).
T1 construct: Acetylcholinesterase (AChE, EC 3.1.1.7, from human erythrocyte); purchased Sigma-Aldrich (Germany); host or cells: human erythrocytes
Description: biochemical. The format is biochemical. As to conditions: mean ± SEM, n ≥ 3. Here is the method:
(§1) Acetylcholinesterase (AChE, EC 3.1.1.7, from human erythrocyte and E. electricus (EeAChE) (type VI-S), butyrylcholinesterase (BChE, EC 3.1.1.8, from equine serum), carboxylesterase (CaE, EC 3.1.1.1, from porcine liver), acetylthiocholine iodide (ATCh), butylthiocholine iodide (BTCh), 5,5′-dithiobis-(2-nitrobenzoic acid) (DTNB), 4-nitrophenyl acetate (4-NPA), were purchased from Sigma-Aldrich (Germany).
(§2) AChE and BChE activities were measured by the Ellman method as described earlier. The assay solution consisted of 0.1 M K/Na phosphate buffer pH 7.5, 25 °C with the addition of 0.33 mM DTNB, 0.02 unit/mL of AChE or BChE, and 1 mM of substrate (ATCh or BTCh, respectively). The assays were carried out with a reagent blank containing all components except AChE or BChE to account for non-enzymatic hydrolysis of substrate. In addition, an enzyme blank was included that contained all components except substrate to account for non-substrate sulfhydryl groups. […] The assay solution consisted of 0.1 M K/Na phosphate buffer pH 8.0, 25 °C with the addition of 1 mM 4-nitrophenyl acetate and 0.02 unit/mL of CaE. Assays were carried out with a blank containing all components except CaE.
(§3) The test compounds were dissolved in DMSO; the incubation mixture contained 2% (v/v) of the solvent. […] The test compounds were added to the assay solution and preincubated at 25°C with the enzymes for 5 min followed by the addition of substrate. A parallel control was made for the assay solution with no inhibitor. […] Each experiment was performed three times. The results were expressed as the mean ± SEM. The reaction rates in the presence and absence of inhibitor were compared, and the percent of residual enzyme activity due to the presence of test compounds was calculated.

For assay [2], the target named is T2, Electrophorus electricus AChE (EeAChE) (Electrophorus electricus, UniProt O42275).
T2 construct: from human erythrocyte and E. electricus (EeAChE) (type VI-S); purchased Sigma-Aldrich (Germany) type VI-S; host or cells: Electrophorus electricus tissue
Description: biochemical. Format: biochemical. On the procedure:
as §1, §2, §3

Assay [3] addresses T3, equine serum butyrylcholinesterase (BChE) (Equus caballus, UniProt P81908).
T3 construct: butyrylcholinesterase (BChE, EC 3.1.1.8, from equine serum); purchased Sigma-Aldrich (Germany); host or cells: equine serum
Description: biochemical. The format is biochemical. As to conditions: mean ± SEM, n ≥ 3. Here is the method: as §1, §2, §3

Assay [4] relates to isolated rat liver mitochondria. Description: Inhibition of iron-induced lipid peroxidation (TBARs). As to conditions: read-out: IC50 of Fe3+-induced LP, LP induced by 0.5 mM Fe3+, mean ± SEM, n ≥ 3.
The target of assay [5] is T4, porcine liver carboxylesterase (CaE) (Sus scrofa, UniProt Q29550).
T4 sequence (Q29550 19-566): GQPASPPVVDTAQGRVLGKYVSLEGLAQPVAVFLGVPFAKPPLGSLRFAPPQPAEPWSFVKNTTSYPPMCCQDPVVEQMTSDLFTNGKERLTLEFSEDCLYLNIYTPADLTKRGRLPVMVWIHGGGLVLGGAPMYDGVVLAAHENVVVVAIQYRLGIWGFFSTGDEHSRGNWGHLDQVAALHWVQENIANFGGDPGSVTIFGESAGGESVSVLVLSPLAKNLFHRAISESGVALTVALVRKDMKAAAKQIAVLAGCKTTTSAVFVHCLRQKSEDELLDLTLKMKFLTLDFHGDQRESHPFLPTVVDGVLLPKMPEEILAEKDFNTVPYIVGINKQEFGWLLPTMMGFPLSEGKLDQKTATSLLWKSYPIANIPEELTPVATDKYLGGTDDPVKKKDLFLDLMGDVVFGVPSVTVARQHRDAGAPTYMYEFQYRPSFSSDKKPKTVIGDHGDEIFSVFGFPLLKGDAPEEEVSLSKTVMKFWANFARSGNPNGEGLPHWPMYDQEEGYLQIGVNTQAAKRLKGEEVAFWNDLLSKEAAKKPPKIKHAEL
Description: CaE inhibition (4-nitrophenyl acetate hydrolysis). The format is biochemical. The settings on record: for % inhibition of CaE at 20 µM / inhibition at 20 µM: mean ± SEM, n ≥ 3, n.a. = not active at 20 µM; for IC50: read-out: IC50 CaE. On the procedure: as §1, §2, §3

The nature of assay [6]: Oxygen radical absorbance capacity assay (ORAC-FL). The settings on record: for ORAC TE value: ORAC-FL, AAPH, fluorescein, 37 °C, pH 7.4, Trolox taken as 1; for radical-scavenging activity, ORAC-FL method: result in words.
Description: The ability of the conjugates to reduce the amount of peroxyl radicals as another characteristic of the antioxidant activity of the compounds was determined using the oxygen radical absorbance capacity by fluorescence (ORAC-FL) method using fluorescein (FL) as a fluorescent probe. The method is based on measuring the decrease in the intensity of fluorescence with time, which characterizes the degree of decay of the fluorescent probe under the influence of peroxyl radicals. In the presence of antioxidants, the degree of decay of the fluorescent probe decreases and, accordingly, the fluorescence time increases.
The ability of compounds to scavenge peroxyl radicals was characterized by the value of the Trolox equivalent (TE, μmol of Trolox per μmol of the tested compound), which is equal to the ratio of the Trolox concentration to the tested compound concentration having the same fluorescence intensity. Peroxyl radical scavenging capacity of Trolox is taken as one (1)[67],[68].
2,2′-Azobis-(amidinopropane) dihydrochloride (AAPH), (±)-6-hydroxy-2,5,7,8-tetramethylchromane-2-carboxylic acid (Trolox) and fluorescein (FL) were purchased from Sigma-Aldrich. The reaction was carried out at 37 °C in 75 mM K,Na phosphate buffer (pH 7.4), and the final reaction mixture was 200 µL. The tested compounds and Trolox standard were dissolved in DMSO to 10 mM and further diluted in 75 mM K,Na phosphate buffer (pH 7.4). […] The blank was composed of 20 µL 75 mM K,Na phosphate buffer (pH 7.4) containing 2% (v/v) DMSO, 120 µL FL and 60 µL AAPH, and was added in each assay. Antioxidant (the test compound or Trolox, 20 µL) and FL (120 µL, final concentration: 70 nM) solutions were placed in a black 96-well microplate and were pre-incubated for 15 min at 37 °C. AAPH solution (60 µL, final concentration 12 mM) was then added rapidly using a multichannel pipette. The fluorescence was recorded every minute for 100 min. A Trolox standard curve was also obtained in each assay. All reactions were carried out in triplicate and at least three different assays were performed for each sample.
Antioxidant curves (fluorescence vs. time) were first normalized to the curve of the blank (without antioxidant) corresponding to the same assay, and the area under the fluorescence decay curve (AUC) was calculated. The net AUC corresponding to a sample was calculated by subtracting the AUC corresponding to the blank. Regression equations were calculated by plotting the net AUC against the antioxidant concentration. The ORAC value was obtained by dividing the slope of the latter curve by the slope of the Trolox curve obtained in the same assay. […] Data were expressed as means ± SEM.
The target of assay [7] is T5, peripheral anionic site (PAS) of EeAChE (Electrophorus electricus, UniProt O42275).
T5 construct: from human erythrocyte and E. electricus (EeAChE) (type VI-S); purchased Sigma-Aldrich (Germany) type VI-S; host or cells: Electrophorus electricus tissue
The format is binding. The settings on record: EeAChE 7 μM, propidium iodide 8 μM; for % Displacement of propidium iodide, 3 µM: compound 3 µM; for % Displacement of propidium iodide, 20 µM: compound 20 µM. The text has this:
The fluorescent assay used to evaluate competitive propidium iodide displacement from the PAS of AChE is commonly used as primary screening method of AChE pro-aggregation activity inhibitors. Propidium iodide is a selective ligand for the PAS of AChE responsible for Aβ binding.
EeAChE was used owing to its high degree of purification, high activity, and lower cost than human AChE. […] The fluorescence intensity of propidium iodide bound with AChE increases several times.
To determine the degree of displacement (% displacement) of propidium iodide from the PAS of AChE, EeAChE (final concentration 7 μM) was incubated with the test compound at a concentration of 3 and 20 μM in 1 mM Tris-HCl buffer pH 8.0, 25 °C for 15 min. Then, propidium iodide solution (final concentration 8 μM) was added, the samples were incubated for 15 min and the fluorescence spectrum (530 nm (excitation) and 600 nm (emission)) was taken. Donepezil and tacrine were used as reference compounds. The blank contained propidium iodide of the same concentration in 1 mM Tris-HCl buffer pH 8.0. The measurements were carried out in triplicate on a microplate reader FLUOStar Optima (BMG Labtech Germany).
The degree of displacement (% displacement) of propidium iodide from the peripheral anionic site of AChE was calculated by the following formula: %Displacement=100−(IFAChE+Propidium+inhibitor/IFAChE+Propidium)[…], where IFAChE + Propidium is the fluorescence intensity of the propidium associated with AChE in the absence of the test compound (taken as 100%), and IFAChE + Propidium + inhibitor is the fluorescence intensity of the propidium associated with AChE in the presence of the test compound.

[8] abbreviates: mean ± SEM, n ≥ 3, read-out: EeAChE IC50.

T2 sequence (O42275 24-633): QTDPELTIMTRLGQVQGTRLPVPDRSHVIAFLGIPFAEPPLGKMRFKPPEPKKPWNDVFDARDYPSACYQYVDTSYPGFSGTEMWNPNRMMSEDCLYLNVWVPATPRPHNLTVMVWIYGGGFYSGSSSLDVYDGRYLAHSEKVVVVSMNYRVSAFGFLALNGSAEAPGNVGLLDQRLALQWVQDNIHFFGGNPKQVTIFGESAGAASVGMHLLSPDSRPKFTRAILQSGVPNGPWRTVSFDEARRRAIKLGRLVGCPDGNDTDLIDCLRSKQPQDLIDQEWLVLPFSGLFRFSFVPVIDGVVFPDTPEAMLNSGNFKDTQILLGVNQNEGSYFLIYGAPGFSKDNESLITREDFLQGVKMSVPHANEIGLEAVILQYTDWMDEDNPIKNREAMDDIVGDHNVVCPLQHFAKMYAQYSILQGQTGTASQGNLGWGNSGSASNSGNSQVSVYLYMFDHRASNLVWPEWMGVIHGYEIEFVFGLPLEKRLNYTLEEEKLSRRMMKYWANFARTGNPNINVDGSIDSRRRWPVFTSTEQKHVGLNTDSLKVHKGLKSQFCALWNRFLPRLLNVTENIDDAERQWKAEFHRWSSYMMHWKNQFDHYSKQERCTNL
T5 sequence (O42275 24-633): as above
T3 sequence (P81908 whole entry): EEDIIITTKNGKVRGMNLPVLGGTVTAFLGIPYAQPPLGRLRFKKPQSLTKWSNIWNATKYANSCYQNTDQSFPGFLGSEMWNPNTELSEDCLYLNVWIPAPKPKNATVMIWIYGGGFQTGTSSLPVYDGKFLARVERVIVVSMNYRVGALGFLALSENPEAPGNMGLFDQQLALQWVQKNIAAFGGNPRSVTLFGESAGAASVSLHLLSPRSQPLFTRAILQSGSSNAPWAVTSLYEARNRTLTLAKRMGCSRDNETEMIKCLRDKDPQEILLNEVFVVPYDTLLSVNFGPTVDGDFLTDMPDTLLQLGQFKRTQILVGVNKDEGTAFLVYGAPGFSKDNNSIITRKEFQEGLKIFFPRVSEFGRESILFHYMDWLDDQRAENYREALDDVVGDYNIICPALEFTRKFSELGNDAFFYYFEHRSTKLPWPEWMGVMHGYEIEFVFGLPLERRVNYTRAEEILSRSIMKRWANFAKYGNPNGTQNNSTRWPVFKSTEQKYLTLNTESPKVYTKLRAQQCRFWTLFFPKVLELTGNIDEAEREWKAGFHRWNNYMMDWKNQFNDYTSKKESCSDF
T1 sequence (P22303 32-617 isoform P22303-2 limits assumed): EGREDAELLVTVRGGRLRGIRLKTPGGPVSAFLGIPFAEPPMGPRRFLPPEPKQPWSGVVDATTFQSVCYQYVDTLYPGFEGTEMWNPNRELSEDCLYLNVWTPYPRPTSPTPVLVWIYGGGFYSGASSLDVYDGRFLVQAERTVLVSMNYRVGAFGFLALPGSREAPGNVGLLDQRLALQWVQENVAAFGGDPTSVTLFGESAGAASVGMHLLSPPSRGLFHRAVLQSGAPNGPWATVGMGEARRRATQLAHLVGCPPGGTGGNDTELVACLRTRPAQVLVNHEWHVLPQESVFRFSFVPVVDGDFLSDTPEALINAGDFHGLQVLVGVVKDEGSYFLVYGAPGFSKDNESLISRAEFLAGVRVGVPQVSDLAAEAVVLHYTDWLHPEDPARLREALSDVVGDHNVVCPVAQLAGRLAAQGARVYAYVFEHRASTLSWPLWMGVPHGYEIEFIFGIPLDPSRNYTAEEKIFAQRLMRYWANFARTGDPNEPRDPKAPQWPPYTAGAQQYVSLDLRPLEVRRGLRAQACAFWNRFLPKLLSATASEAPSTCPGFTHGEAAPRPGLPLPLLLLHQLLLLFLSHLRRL

For `CN1CCc2c(c3ccccc3n2CCC(=O)N2c3ccc(N(C)C)cc3Sc3cc(N(C)C)ccc32)C1.Cl.Cl.Cl` [Compound 1], the IC50 in assay [1] is 3170 ± 130 nM; in assay [2] (setting [8]), 830 ± 30 nM; in assay [3], 5940 ± 550 nM; in assay [4], 1450 ± 290 nM; in assay [5], above 20000 nM. The “% inhibition of CaE at 20 µM” value in assay [5] is on record as 21.5 ± 2.3%. Besides, the “ORAC TE value” in assay [6] is 7.28 ± 0.65 µmol Trolox/ µmol comp.
Take `CCN1CCc2c(c3ccccc3n2CCC(=O)N2c3ccc(N(C)C)cc3Sc3cc(N(C)C)ccc32)C1.Cl.Cl.Cl` [Compound 2]: the “% Displacement of propidium iodide, 3 µM” value in assay [7] is on record as 12.9 ± 1.1%. Further, in assay [7], the “% Displacement of propidium iodide, 20 µM” value (from here on “% Displacement … 20 µM”) stood at 37.1 ± 2.0%. For the same molecule, the IC50 was 2950 ± 70 nM in assay [1]; 670 ± 40 nM in assay [2] (setting [8]); 2530 ± 220 nM in assay [3]; 680 ± 70 nM in assay [4]; above 20000 nM in assay [5]. For the same molecule, the “% inhibition of CaE at 20 µM” value in assay [5] is reported as 18.1 ± 1.7%. Moreover, the “ORAC TE value” in assay [6] amounted to 8.80 ± 0.96 µmol Trolox/ µmol comp.
Turning to `Cc1ccc2c(c1)c1c(n2CCC(=O)N2c3ccc(N(C)C)cc3Sc3cc(N(C)C)ccc32)CCN(C)C1` [Compound 3], the “% Displacement of propidium iodide, 3 µM” value in assay [7] is listed as 8.1 ± 0.7%. Further, the “% Displacement … 20 µM” value in assay [7] came out at 35.6 ± 1.5%. The IC50 was 1730 ± 110 nM in assay [1]; 1470 ± 80 nM in assay [2] (setting [8]); 1820 ± 140 nM in assay [3]; 2290 ± 470 nM in assay [4]; above 20000 nM in assay [5]. In assay [5], the inhibition at 20 µM was 26%. Besides, in assay [6], the “ORAC TE value” came to 7.44 ± 0.74 µmol Trolox/ µmol comp.
As to `CCN1CCc2c(c3cc(C)ccc3n2CCC(=O)N2c3ccc(N(C)C)cc3Sc3cc(N(C)C)ccc32)C1.Cl.Cl.Cl` [Compound 4], in assay [7], the “% Displacement of propidium iodide, 3 µM” value is 11.8 ± 0.6%. Further, the “% Displacement … 20 µM” value in assay [7] was found to be 37.6 ± 1.8%. Moreover, the IC50 in assay [1] was 4030 ± 360 nM; in assay [2] (setting [8]), 650 ± 50 nM; in assay [3], 17900 ± 1400 nM; in assay [4] it was 710 ± 10 nM; in assay [5], above 20000 nM. Besides, the “% inhibition of CaE at 20 µM” value in assay [5] stood at 15.7 ± 1.8%. Further, the “ORAC TE value” in assay [6] stood at 9.82 ± 0.79 µmol Trolox/ µmol comp.
Take `CCCN1CCc2c(c3cc(C)ccc3n2CCC(=O)N2c3ccc(N(C)C)cc3Sc3cc(N(C)C)ccc32)C1.Cl.Cl.Cl` [Compound 5]: the “% Displacement of propidium iodide, 3 µM” value in assay [7] was found to be 14.2 ± 0.9%. Further, the “% Displacement … 20 µM” value in assay [7] came out at 35.1 ± 0.9%. Also, the IC50 in assay [1] is 3950 ± 210 nM; in assay [2] (setting [8]), 800 ± 70 nM; in assay [3], 8420 ± 830 nM; in assay [4], 750 ± 10 nM; in assay [5], above 20000 nM. Besides, in assay [5], the “% inhibition of CaE at 20 µM” value is reported as 9.8 ± 1.4%. For the same molecule, the “ORAC TE value” in assay [6] was found to be 7.70 ± 0.84 µmol Trolox/ µmol comp.
Regarding `Cc1ccc2c(c1)c1c(n2CCC(=O)N2c3ccc(N(C)C)cc3Sc3cc(N(C)C)ccc32)CCN(C(C)C)C1.Cl.Cl.Cl` [Compound 6], the “% Displacement of propidium iodide, 3 µM” value in assay [7] is 7.7 ± 0.5%. Moreover, the “% Displacement … 20 µM” value in assay [7] was found to be 30.0 ± 0.9%. In addition, the IC50 was 7370 ± 420 nM in assay [1]; 1070 ± 80 nM in assay [2] (setting [8]); 970 ± 50 nM in assay [3]; 580 ± 30 nM in assay [4]; above 20000 nM in assay [5]. Also, in assay [5], the “% inhibition of CaE at 20 µM” value is reported as 19.5 ± 1.8%. Also, the “ORAC TE value” in assay [6] amounted to 7.12 ± 0.64 µmol Trolox/ µmol comp.
As for `CN1CCc2c(c3cc(F)ccc3n2CCC(=O)N2c3ccc(N(C)C)cc3Sc3cc(N(C)C)ccc32)C1` [Compound 7], the “% Displacement of propidium iodide, 3 µM” value in assay [7] came out at 6.7 ± 0.5%. The “% Displacement … 20 µM” value in assay [7] is given as 29.8 ± 2.1%. The IC50 in assay [1] is 6860 ± 320 nM; in assay [2] (setting [8]), 2090 ± 190 nM; in assay [3], 10500 ± 900 nM; in assay [4], 3200 ± 400 nM; in assay [5], above 20000 nM. In assay [5], at 20 µM the inhibition was 13.8%. Moreover, the “ORAC TE value” in assay [6] worked out at 10.93 ± 0.98 µmol Trolox/ µmol comp.
Turning to `CN(C)c1ccc2nc3ccc(=[N+](C)C)cc-3sc2c1` [MB, methylene blue, reference compound], the “% Displacement of propidium iodide, 3 µM” value in assay [7] was 20% and 20.9 ± 1.9%. The “% Displacement … 20 µM” value in assay [7] was 40% and 40.8 ± 3.7%. Also, the IC50 in assay [2] is 210 ± 20 nM; in assay [3], 11100 ± 100 nM; in assay [4], 4000 ± 600 nM; in assay [5], above 20000 nM. Further, the inhibition at 20 µM in assay [5] stood at 12.3%. Also, the “radical-scavenging activity, ORAC-FL method” value in assay [6] is recorded as “not detectable”.
`CN(C)c1ccc2c(c1)Sc1cc(N(C)C)ccc1N2` [MBH2, leucomethylene blue, reference compound]: the “% Displacement of propidium iodide, 3 µM” value in assay [7] is recorded as 17.7 ± 1.8%. Besides, the “% Displacement … 20 µM” value in assay [7] turned out to be 36.9 ± 3.3%. Besides, the half-maximal inhibitory concentration (IC50) is 1760 ± 90 nM in assay [1]; 280 ± 20 nM in assay [2]; 10700 ± 200 nM in assay [3]; 1580 ± 490 nM in assay [4]; above 20000 nM in assay [5]. This molecule also came in with an inhibition at 20 µM in assay [5] of 17.2%. In addition, the “radical-scavenging activity, ORAC-FL method” value in assay [6] is listed as “not detectable”.
